Assay results taken from US9889176B2, “Treating renal and liver dysfunction with TLR4 antagonists” (YAQRIT LIMITED, priority 2010, dated 2018).

What was measured:
[1] = test system: bile duct ligated (BDL) rat; assay: Bile duct ligated (BDL) rat model of cirrhosis with or without LPS: renal dysfunction, selective gut decontamination; type: in vivo, Sprague-Dawley rats; conditions: for kidney TLR4 protein expression (Western Blot) / plasma creatinine: Norfloxacin 20 mg/kg orally for 10 days; for kidney TLR4 protein expression (Western Blot): FIG. 9; for NFkBp65 expression in Kidney: FIG. 10; for plasma creatinine: FIG. 8
Excerpt: These experiments utilised an established animal model of cirrhosis, the bile duct ligated (BDL) rat. BDL rats may be generated by methods known in the art. For example, male Sprague-Dawley rats (200-250 g) may be used for this procedure. Following anaesthetisation, a mid-line laparotamy may be performed, the bile duct exposed, triply ligated with 4.0 silk suture, and severed between the second and third ligature. The wound is then closed in layers with absorbable suture, and the animal allowed to recover in a quiet room before being returned to the animal storage facility. 6 groups of Sprague-Dawley rats were studied: n=6 in each group. […] The aims of this study was to determine (1) Whether cirrhosis is associated with an upregulation of TLR4, NFkB and proinflammatory cytokines in kidney. […] Biochemistry: Functional aspect of Kidneys was assessed by measuring plasma creatinine. Protein expression of TLR4 and NFkBp65 was assessed using a commonly used Western Blot technique. Localisation of TLR4 and Caspase (effector protein leading to cell death) was done by Immunohistochemistry. Cytokines were quantified using the ELISA bead array.

[2] = test system: BDL rats; assay: Brain TLR4 expression, brain water and survival in BDL rats with or without LPS; type: in vivo; conditions: for brain TLR4 immunohistochemistry: FIG. 23
Excerpt: These experiments utilised an established animal model of cirrhosis, the bile duct ligated (BDL) rat. BDL rats may be generated by methods known in the art. For example, male Sprague-Dawley rats (200-250 g) may be used for this procedure. Following anaesthetisation, a mid-line laparotamy may be performed, the bile duct exposed, triply ligated with 4.0 silk suture, and severed between the second and third ligature. The wound is then closed in layers with absorbable suture, and the animal allowed to recover in a quiet room before being returned to the animal storage facility. 6 groups of Sprague-Dawley rats were studied: n=6 in each group. […] Experiments were carried out using Sham treated and BDL rats as described above.

[3] = BDL and BDL+LPS groups, FIG. 13

## CCn1cc(C(=O)O)c(=O)c2cc(F)c(N3CCNCC3)cc21 [Norfloxacin]
[1]; BDL and BDL+LPS groups, FIG. 11
  kidney TNFα: prevented the rise
[1]; BDL and BDL+LPS groups, FIG. 12
  Kidney IL6 (local IL6 production): no effect
[1]; [3]
  plasma IL6 (systemic proinflammatory cytokine): reducing the secretion of cytokines
  plasma TNFα (systemic proinflammatory cytokine): reducing the secretion of cytokines
[1]; BDL and BDL+LPS groups, FIG. 16
  kidney caspase 3 (cell death), immunohistochemistry: reduction in the caspase positivity
[1]; BDL group administered LPS, p=0.02
  kidney TLR4 protein expression (Western Blot): reduced
[1]; BDL rats administered LPS, p=0.01
  NFkBp65 expression in Kidney: attenuated
[1]; BDL rats, p=0.02
  plasma creatinine: reduction
  kidney TLR4 protein expression (Western Blot): reduced
  NFkBp65 expression in Kidney: attenuated
[1]; BDL rats, selective gut decontamination
  renal failure induced by LPS: prevents renal failure
[1]; BDL+LPS rats, p=0.03
  plasma creatinine: reduction
[2]; BDL animals treated with LPS
  brain TLR4 immunohistochemistry: could be prevented
[2]; BDL animals
  brain TLR4 immunohistochemistry: could be prevented
[2]; increase in BDL and BDL+LPS rats, FIG. 22
  brain TLR4 protein expression: could be prevented
[2]; increase in BDL and BDL+LPS rats, FIG. 24
  brain swelling measured by brain water: could be prevented
